Patent US7019021B2, “Compounds and methods for treating urinary incontinence” (Boehringer Ingelheim Pharma GmbH & Co. KG, priority 1995, dated 2006)

Test system: urethra
Test: Intraluminal pressure of the urethra in the anaesthetised rabbit
Type: in vivo
Conditions: i.v.; for Contraction of the urethra / Duration of effect (contraction of the urethra): female Japanese white rabbits, urethane anaesthesia, phenylephrine 30 μg/kg vs Example 2 10 μg/kg, phenylephrine = 100
Protocol: Female Japanese white rabbits (weighing 3.0 to 3.5 kg) are anaesthetised with urethane (1 g/kg i.p.). A polyethylene cannula is inserted in the urinary bladder by means of a small incision. The changes in the intraluminal pressure are recorded by means of balloon in the urethra which contains about 1.5 ml of water at 37° C.

[1] = rabbit, 10 μg/kg Example 2 vs 30 μg/kg phenylephrine, factor

SMILES: Cc1c(N(C)C)ccc(Br)c1N=C1NCCN1 [Example 2, 2-(6-Bromo-3-dimethylamino-2-methylphenylimino)imidazolidine]
- Contraction of the urethra: 273%
- Duration of effect (contraction of the urethra): 430%
- duration of effect (contraction of the urethra), longer by a factor compared with phenylephrine [1]: 4.3
- potency with regard to the contraction of the urethra, higher by a factor compared with phenylephrine [1]: 2.73

SMILES: CNC[C@H](O)c1cccc(O)c1 [Phenylephrine, phenylephrine]
- Contraction of the urethra: 100%
- Duration of effect (contraction of the urethra): 100%
